In patent US20230086985A1, “POLYMERIC COMPOUNDS INCLUDING AN ACCEPTOR DYE AND DONOR LUMINOPHORE” (North Carolina State University, priority 2019, published 2023):
Where two headings read alike, the source gives them in different places.

Columns and labels:
[1] = Fluorescence quantum yield of F1-F3 and D1-D3; type: physicochemical
Description: Fluorescence Quantum Yields. […] […] These comparisons indicate the absence of dye-dye quenching resulting from the aggregation for F1 and F2 in μM aqueous solutions. […] Also, a smaller phthalocyanine skeleton (e.g. with methyl instead of heptyl as peripheral groups) may be encapsulated with the current length of copolymer successfully.

[2] = Absorption and emission spectra of dye-loaded copolymers F1-F3 and dyes D1-D3; type: physicochemical
Description: Measurements of Absorption and Emission Spectra. The target dye-loaded copolymers F1-F3 were then subject to investigations of their spectroscopic properties in both organic solvents and aqueous solution. […] Attaching to the 120-kDa amphiphilic copolymer drastically enhances the water solubility of BODIPY D1 and chlorin D2 without strong perturbation on the spectroscopic properties. Emission band for F1 and F2 in water remains the same as the ones measured in organic solutions, showing minimal dye-dye interaction is involved in aqueous solution of F1 and F2 at μM concentration. […] This negative result may be because of the inappropriate size of the copolymer backbone. Polymer larger in size may be required to encapsulate large hydrophobic chromophores like the phthalocyanine D3.
General Methods. All chemicals obtained commercially were used as received unless otherwise noted. Reagent-grade solvents (CH2Cl2, THF, methanol) and HPLC-grade water were used as received. NMR data was measured in a solution of CDCl3 unless otherwise noted. Noncommercial compounds 1, 2, and 4 were prepared following literature procedures. Analytical SEC experiments were performed with PLgel 10000 Å SEC column, eluted with ACS grade THF (stabilized with 400 ppm of BHT) at 35° C. with a flow rate at 1 mL/min. Samples were detected with Agilent 1260 infinity refractive index detector. Absorption spectra were measured on Agilent 8453 and Shimadzu UV1800 instruments using dilute (μmolar) solutions of the compound in UV transparent (e.g., quartz) cuvettes versus a solvent blank at room temperature.

[3] = aqueous solution, Hg(II); cited from earlier work
[4] = aqueous solution, cited from earlier work
[5] = solvent toluene, room temperature
[6] = solvent CH2Cl2, room temperature

Structure (SMILES) | Φf [1, 6] | FWHM [2, 6] | emission maximum wavelength (λem max) [2, 6] | λabs^max [2, 6] | further results
CCCCCCCc1cc2c(cc1CCCCCCC)-c1nc-2nc2[nH]c(nc3nc(nc4[nH]c(n1)c1cc(CCCCCCC)c(CCCCCCC)cc41)-c1cc(C#Cc4ccc(CC(=O)NN)cc4)ccc1-3)c1cc(CCCCCCC)c(CCCCCCC)cc21 [Compound D3, 2-[4-(N-Aminocarbamoyl)methylphenylethynyl]-9,10,16,17,23,24-hexaheptylphthalocyanine] |  |  |  |  | Φf [1, 5]: 0.68; FWHM [2, 5]: 1113 cm⁻¹; emission maximum wavelength (λem max) [2, 5]: 707 nm; λabs^max [2, 5]: 702 nm
Cc1cc(C)c(-c2c3nc(c(-c4ccc(C(=O)NN)cc4)c4ccc(cc5nc(cc6ccc2[nH]6)CC5(C)C)[nH]4)C=C3)c(C)c1 [Compound D2, 5-[4-(N-Aminocarbamoyl)phenyl]-10-Mesityl-18,18-dimethylchlorin] | 0.19 | 342 cm⁻¹ | 641 nm | 640 nm | 
Cc1cc(C)c(C2=C3C=CC=[N+]3[B-](F)(F)n3cc(C#CCCCCC(=O)NN)cc32)c(C)c1 [Compound D1, 2-[6-(N-Aminocarbamoyl)hex-1-yn-1-yl]-8-mesityl-4,4-difluoro-4-bora-3a,4a-diaza-s-indacene] | 0.065 | 1628 cm⁻¹ | 557 nm | 543 nm | 
CCN(CC)c1ccc2c(c1)Oc1cc(N(CC)CC)ccc1C21c2ccccc2C(=O)N1N [Rhodamine-B hydrazide] |  |  |  |  | change in absorption or fluorescence spectra [3]: significant change; change in absorption or fluorescence spectra ([4]; Cu(II)): significant change; Cu(II) concentration at which selective detection was highly sensitive and quantitative [4]: 10^−7 M
